In patent US20260242419A1, “A CYCLIC PEPTIDE FOR TRAPPING INTERLEUKIN-1 BETA” (Merck Sharp & Dohme LLC, priority 2023, published 2026):
Starred links: 1 amine or outer side, 2 acyl side, 3 side chain; linkers in the order of their positions; H or OH if unused. Non-standard residues stand in square brackets, D forms with d. Residues, ends and D or L forms follow the SMILES beside them. Ala(2-carboxypyrimidin-5-yl) = N[C@@H](Cc1cnc(C(=O)O)nc1)C(=O)O; dPro(4R-(4-pyridylmethyl)) = O=C(O)[C@H]1C[C@@H](Cc2ccncc2)CN1; Trp(βS-Me,4-F) = C[C@@H](c1c[nH]c2cccc(F)c12)[C@H](N)C(=O)O; Bip(4'-COOH) = N[C@@H](Cc1ccc(-c2ccc(C(=O)O)cc2)cc1)C(=O)O; dPro(3S-(4-F-Bn)) = O=C(O)[C@@H]1NCC[C@@H]1Cc1ccc(F)cc1; X41 = O=C([C@@H](N[*:1])[C@@H](O)c1ccncc1)[*:2]; Ala(pyrimidin-5-yl) = N[C@@H](Cc1cncnc1)C(=O)O; Phe(4-COOH) = N[C@@H](Cc1ccc(C(=O)O)cc1)C(=O)O; X24 = NC(=O)c1ncc(C[C@H](N[*:1])C(=O)[*:2])cn1; Bip = N[C@@H](Cc1ccc(-c2ccccc2)cc1)C(=O)O; Pro(cis-4-F) = O=C(O)[C@@H]1C[C@H](F)CN1; Met(O2) = CS(=O)(=O)CC[C@H](N)C(=O)O; Dap(CONH2) = NC(=O)NC[C@H](N)C(=O)O; cisHyp = O=C(O)[C@@H]1C[C@H](O)CN1; d(αMeD) = C[C@@](N)(CC(=O)O)C(=O)O; 4Pal = N[C@@H](Cc1ccncc1)C(=O)O; NMeDab = CN[C@@H](CCN)C(=O)O; Dab = NCC[C@H](N)C(=O)O; Aib = CC(C)(N)C(=O)O

target: T1, IL-1β (Homo sapiens, UniProt P01584); assay: IL-6 assay in MRC5 cells: inhibition of IL-1β induced IL-6 secretion (AlphaLISA); assay type: cell-based; details: inhibition of IL-1β induced IL-6 secretion in MRC5 cells; compound pre-incubated 1 hour with recombinant human IL-1β; read-out: MRC5 IC50
T1 construct: purchased BioLegend 579404
Method in brief: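 Compound was pre-incubated 1 h at ambient temperature with recombinant human IL-1β at 2λ EC80 before adding human lung fibroblast MRC5 cells (3000/well) in EMEM with 0.025% BSA. After overnight culture at 37 °C, 5% CO2, secreted IL-6 in conditioned medium was measured by AlphaLISA; IC50 from 4-parameter logistic fits.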

T1 sequence (P01584 117-269): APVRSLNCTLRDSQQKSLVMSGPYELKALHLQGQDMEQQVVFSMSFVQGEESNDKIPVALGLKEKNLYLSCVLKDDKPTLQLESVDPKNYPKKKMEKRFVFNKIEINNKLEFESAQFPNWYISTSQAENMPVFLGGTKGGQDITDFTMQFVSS

`C[C@@H](c1c[nH]c2cccc(F)c12)[C@@H]1NC(=O)[C@@H]2C[C@H](F)CN2C(=O)CNC(=O)[C@H](Cc2ccc(C(=O)O)cc2)NC(=O)[C@H](Cc2ccncc2)NC(=O)[C@H](Cc2ccc(-c3ccc(C(=O)O)cc3)cc2)NC(=O)[C@H]2C[C@@H](Cc3ccncc3)CN2C(=O)CNC(=O)[C@H](CCN)N(C)C(=O)[C@H](CCC(N)=O)NC(=O)[C@H](Cc2cncnc2)NC(=O)C(C)(C)NC(=O)[C@H](Cc2c[nH]c3ccccc23)NC(=O)[C@H](CO)NC(=O)C(C)(C)NC1=O` [Example 262] (cyclo([Bip(4'-COOH)][4Pal][Phe(4-COOH)]G[Pro(cis-4-F)][Trp(βS-Me,4-F)][Aib]SW[Aib][Ala(pyrimidin-5-yl)]Q[NMeDab]G[dPro(4R-(4-pyridylmethyl))])) and `C[C@@H](c1c[nH]c2cccc(F)c12)[C@@H]1NC(=O)[C@@H]2C[C@H](F)CN2C(=O)CNC(=O)[C@H](Cc2ccc(C(=O)O)cc2)NC(=O)[C@H](Cc2ccncc2)NC(=O)[C@H](Cc2ccc(-c3ccc(C(=O)O)cc3)cc2)NC(=O)[C@H]2C[C@@H](Cc3ccncc3)CN2C(=O)CNC(=O)[C@H](CNC(N)=O)NC(=O)[C@H](CCC(N)=O)NC(=O)[C@H](Cc2cncnc2)NC(=O)C(C)(C)NC(=O)[C@H](Cc2c[nH]c3ccccc23)NC(=O)[C@H](CO)NC(=O)C(C)(C)NC1=O` [Example 270] (cyclo([Bip(4'-COOH)][4Pal][Phe(4-COOH)]G[Pro(cis-4-F)][Trp(βS-Me,4-F)][Aib]SW[Aib][Ala(pyrimidin-5-yl)]Q[Dap(CONH2)]G[dPro(4R-(4-pyridylmethyl))])) are within 1.5-fold of each other in IC50: 0.02 nM for the first, 0.023 nM for the second.

`C[C@@H](c1c[nH]c2cccc(F)c12)[C@@H]1NC(=O)[C@@H]2C[C@H](F)CN2C(=O)CNC(=O)[C@H](Cc2ccc(C(=O)O)cc2)NC(=O)[C@H](Cc2ccncc2)NC(=O)[C@H](Cc2ccc(-c3ccc(C(=O)O)cc3)cc2)NC(=O)[C@H]2[C@@H](Cc3ccc(F)cc3)CCN2C(=O)CNC(=O)[C@H](CCN)NC(=O)[C@H](CCC(N)=O)NC(=O)[C@H]([C@@H](O)c2ccncc2)NC(=O)[C@@](C)(CC(=O)O)NC(=O)[C@H](Cc2c[nH]c3ccccc23)NC(=O)[C@H](CO)NC(=O)C(C)(C)NC1=O` [Example 263] (cyclo([Bip(4'-COOH)][4Pal][Phe(4-COOH)]G[Pro(cis-4-F)][Trp(βS-Me,4-F)][Aib]SW[d(αMeD)][X41]Q[Dab]G[dPro(3S-(4-F-Bn))])) and `C[C@@H](c1c[nH]c2cccc(F)c12)[C@@H]1NC(=O)[C@@H]2C[C@H](F)CN2C(=O)CNC(=O)[C@H](Cc2ccc(C(=O)O)cc2)NC(=O)[C@H](Cc2ccncc2)NC(=O)[C@H](Cc2ccc(-c3ccc(C(=O)O)cc3)cc2)NC(=O)[C@H]2C[C@@H](Cc3ccncc3)CN2C(=O)CNC(=O)[C@H](CCN)NC(=O)[C@H](CCC(N)=O)NC(=O)[C@H](Cc2cnc(C(=O)O)nc2)NC(=O)C(C)(C)NC(=O)[C@H](Cc2c[nH]c3ccccc23)NC(=O)[C@H](CO)NC(=O)C(C)(C)NC1=O` [Example 268] (cyclo([Bip(4'-COOH)][4Pal][Phe(4-COOH)]G[Pro(cis-4-F)][Trp(βS-Me,4-F)][Aib]SW[Aib][Ala(2-carboxypyrimidin-5-yl)]Q[Dab]G[dPro(4R-(4-pyridylmethyl))])) are within 1.5-fold of each other in IC50: 0.017 nM for the first, 0.014 nM for the second.

`C[C@@H](c1c[nH]c2cccc(F)c12)[C@@H]1NC(=O)[C@@H]2C[C@H](O)CN2C(=O)CNC(=O)[C@H](Cc2ccc(C(=O)O)cc2)NC(=O)[C@H](Cc2ccncc2)NC(=O)[C@H](Cc2ccc(-c3ccccc3)cc2)NC(=O)[C@H]2C[C@@H](Cc3ccncc3)CN2C(=O)CNC(=O)[C@H](CCN)NC(=O)[C@H](CCC(N)=O)NC(=O)[C@H](Cc2cncnc2)NC(=O)[C@@](C)(CC(=O)O)NC(=O)[C@H](Cc2c[nH]c3ccccc23)NC(=O)[C@H](CO)NC(=O)C(C)(C)NC1=O` [Example 264] (cyclo([Bip][4Pal][Phe(4-COOH)]G[cisHyp][Trp(βS-Me,4-F)][Aib]SW[d(αMeD)][Ala(pyrimidin-5-yl)]Q[Dab]G[dPro(4R-(4-pyridylmethyl))])) and `C[C@@H](c1c[nH]c2cccc(F)c12)[C@@H]1NC(=O)[C@@H]2C[C@H](F)CN2C(=O)CNC(=O)[C@H](Cc2ccc(C(=O)O)cc2)NC(=O)[C@H](Cc2ccncc2)NC(=O)[C@H](Cc2ccc(-c3ccccc3)cc2)NC(=O)[C@H]2C[C@@H](Cc3ccncc3)CN2C(=O)CNC(=O)[C@H](CCN)NC(=O)[C@H](CCC(N)=O)NC(=O)[C@H](Cc2cnc(C(=O)O)nc2)NC(=O)C(C)(C)NC(=O)[C@H](Cc2c[nH]c3ccccc23)NC(=O)[C@H](CO)NC(=O)C(C)(C)NC1=O` [Example 269] (cyclo([Bip][4Pal][Phe(4-COOH)]G[Pro(cis-4-F)][Trp(βS-Me,4-F)][Aib]SW[Aib][Ala(2-carboxypyrimidin-5-yl)]Q[Dab]G[dPro(4R-(4-pyridylmethyl))])) are within 1.5-fold of each other in IC50: 0.017 nM for the first, 0.014 nM for the second.

`C[C@@H](c1c[nH]c2cccc(F)c12)[C@@H]1NC(=O)[C@@H]2C[C@H](F)CN2C(=O)CNC(=O)[C@H](Cc2ccc(C(=O)O)cc2)NC(=O)[C@H](Cc2ccncc2)NC(=O)[C@H](Cc2ccc(-c3ccccc3)cc2)NC(=O)[C@H]2C[C@@H](Cc3ccncc3)CN2C(=O)CNC(=O)[C@H](CCN)NC(=O)[C@H](CCC(N)=O)NC(=O)[C@@H](CC(=O)O)NC(=O)C(C)(C)NC(=O)[C@H](Cc2c[nH]c3ccccc23)NC(=O)[C@H](CO)NC(=O)C(C)(C)NC1=O` [Example 265] (cyclo([Bip][4Pal][Phe(4-COOH)]G[Pro(cis-4-F)][Trp(βS-Me,4-F)][Aib]SW[Aib][dD]Q[Dab]G[dPro(4R-(4-pyridylmethyl))])) and `C[C@@H](c1c[nH]c2cccc(F)c12)[C@@H]1NC(=O)[C@@H]2C[C@H](F)CN2C(=O)CNC(=O)[C@H](Cc2ccc(C(=O)O)cc2)NC(=O)[C@H](Cc2ccncc2)NC(=O)[C@H](Cc2ccc(-c3ccc(C(=O)O)cc3)cc2)NC(=O)[C@H]2C[C@@H](Cc3ccncc3)CN2C(=O)CNC(=O)[C@H](CCN)NC(=O)[C@H](CCC(N)=O)NC(=O)[C@H](CCS(C)(=O)=O)NC(=O)C(C)(C)NC(=O)[C@H](Cc2c[nH]c3ccccc23)NC(=O)[C@H](CO)NC(=O)C(C)(C)NC1=O` [Example 266] (cyclo([Bip(4'-COOH)][4Pal][Phe(4-COOH)]G[Pro(cis-4-F)][Trp(βS-Me,4-F)][Aib]SW[Aib][Met(O2)]Q[Dab]G[dPro(4R-(4-pyridylmethyl))])) are within 1.5-fold of each other in IC50: 0.022 nM for the first, 0.019 nM for the second.

`C[C@@H](c1c[nH]c2cccc(F)c12)[C@@H]1NC(=O)[C@@H]2C[C@H](F)CN2C(=O)CNC(=O)[C@H](Cc2ccc(C(=O)O)cc2)NC(=O)[C@H](Cc2ccncc2)NC(=O)[C@H](Cc2ccc(-c3ccc(C(=O)O)cc3)cc2)NC(=O)[C@H]2C[C@@H](Cc3ccncc3)CN2C(=O)CNC(=O)[C@H](CCN)NC(=O)[C@H](CCC(N)=O)NC(=O)[C@H](Cc2cnc(C(N)=O)nc2)NC(=O)C(C)(C)NC(=O)[C@H](Cc2c[nH]c3ccccc23)NC(=O)[C@H](CO)NC(=O)C(C)(C)NC1=O` [Example 267] (cyclo([Bip(4'-COOH)][4Pal][Phe(4-COOH)]G[Pro(cis-4-F)][Trp(βS-Me,4-F)][Aib]SW[Aib][X24]Q[Dab]G[dPro(4R-(4-pyridylmethyl))])) was tested, and the IC50 was 0.014 nM.
